What was measured:
[1] = molecular target: HAT1/Rbap46 enzyme complex (Homo sapiens, UniProt O14929); assay: HAT1 acetyl-click assay
HCC1806 cells = assay: Cell growth inhibition; type: cell-based, human
[2] = Dose-finding tolerability, single i.p. injection; conditions: mice
A549 tumors = assay: A549 xenograft tumor growth; conditions: 50 mg/kg and 100 mg/kg i.p. once every three days; p < 0.0001
GCN5 = GCN5 (Homo sapiens, UniProt Q92830); assay: Other acetyltransferase assay; type: biochemical; conditions: up to 100 μM
GCN5, sequence (Q92830 whole entry): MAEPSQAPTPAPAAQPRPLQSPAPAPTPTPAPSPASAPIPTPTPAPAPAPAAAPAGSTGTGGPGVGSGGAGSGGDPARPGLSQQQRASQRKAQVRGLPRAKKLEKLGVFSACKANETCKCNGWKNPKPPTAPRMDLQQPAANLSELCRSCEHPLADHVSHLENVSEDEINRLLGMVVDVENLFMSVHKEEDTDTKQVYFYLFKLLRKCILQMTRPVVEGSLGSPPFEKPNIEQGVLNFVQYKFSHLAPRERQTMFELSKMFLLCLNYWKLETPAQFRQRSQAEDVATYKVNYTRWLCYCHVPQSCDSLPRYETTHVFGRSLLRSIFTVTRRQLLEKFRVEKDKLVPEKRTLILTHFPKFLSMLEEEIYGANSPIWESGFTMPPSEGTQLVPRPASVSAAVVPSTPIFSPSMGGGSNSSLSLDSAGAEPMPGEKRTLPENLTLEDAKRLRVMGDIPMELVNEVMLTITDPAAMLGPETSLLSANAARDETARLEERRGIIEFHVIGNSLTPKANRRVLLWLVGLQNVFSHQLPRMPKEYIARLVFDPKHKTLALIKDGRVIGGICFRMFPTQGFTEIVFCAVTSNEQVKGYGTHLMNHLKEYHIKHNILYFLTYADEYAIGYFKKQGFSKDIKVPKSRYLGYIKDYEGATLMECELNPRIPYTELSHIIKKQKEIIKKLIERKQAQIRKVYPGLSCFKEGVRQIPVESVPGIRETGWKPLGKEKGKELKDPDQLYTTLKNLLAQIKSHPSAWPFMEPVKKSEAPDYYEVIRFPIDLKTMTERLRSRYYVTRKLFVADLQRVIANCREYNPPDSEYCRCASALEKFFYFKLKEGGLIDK

MYST4/KAT6b = MYST4/KAT6b (Homo sapiens, UniProt Q8WYB5); assay: Other acetyltransferase assay; type: biochemical; conditions: up to 100 μM
MYST4/KAT6b, sequence (Q8WYB5 whole entry): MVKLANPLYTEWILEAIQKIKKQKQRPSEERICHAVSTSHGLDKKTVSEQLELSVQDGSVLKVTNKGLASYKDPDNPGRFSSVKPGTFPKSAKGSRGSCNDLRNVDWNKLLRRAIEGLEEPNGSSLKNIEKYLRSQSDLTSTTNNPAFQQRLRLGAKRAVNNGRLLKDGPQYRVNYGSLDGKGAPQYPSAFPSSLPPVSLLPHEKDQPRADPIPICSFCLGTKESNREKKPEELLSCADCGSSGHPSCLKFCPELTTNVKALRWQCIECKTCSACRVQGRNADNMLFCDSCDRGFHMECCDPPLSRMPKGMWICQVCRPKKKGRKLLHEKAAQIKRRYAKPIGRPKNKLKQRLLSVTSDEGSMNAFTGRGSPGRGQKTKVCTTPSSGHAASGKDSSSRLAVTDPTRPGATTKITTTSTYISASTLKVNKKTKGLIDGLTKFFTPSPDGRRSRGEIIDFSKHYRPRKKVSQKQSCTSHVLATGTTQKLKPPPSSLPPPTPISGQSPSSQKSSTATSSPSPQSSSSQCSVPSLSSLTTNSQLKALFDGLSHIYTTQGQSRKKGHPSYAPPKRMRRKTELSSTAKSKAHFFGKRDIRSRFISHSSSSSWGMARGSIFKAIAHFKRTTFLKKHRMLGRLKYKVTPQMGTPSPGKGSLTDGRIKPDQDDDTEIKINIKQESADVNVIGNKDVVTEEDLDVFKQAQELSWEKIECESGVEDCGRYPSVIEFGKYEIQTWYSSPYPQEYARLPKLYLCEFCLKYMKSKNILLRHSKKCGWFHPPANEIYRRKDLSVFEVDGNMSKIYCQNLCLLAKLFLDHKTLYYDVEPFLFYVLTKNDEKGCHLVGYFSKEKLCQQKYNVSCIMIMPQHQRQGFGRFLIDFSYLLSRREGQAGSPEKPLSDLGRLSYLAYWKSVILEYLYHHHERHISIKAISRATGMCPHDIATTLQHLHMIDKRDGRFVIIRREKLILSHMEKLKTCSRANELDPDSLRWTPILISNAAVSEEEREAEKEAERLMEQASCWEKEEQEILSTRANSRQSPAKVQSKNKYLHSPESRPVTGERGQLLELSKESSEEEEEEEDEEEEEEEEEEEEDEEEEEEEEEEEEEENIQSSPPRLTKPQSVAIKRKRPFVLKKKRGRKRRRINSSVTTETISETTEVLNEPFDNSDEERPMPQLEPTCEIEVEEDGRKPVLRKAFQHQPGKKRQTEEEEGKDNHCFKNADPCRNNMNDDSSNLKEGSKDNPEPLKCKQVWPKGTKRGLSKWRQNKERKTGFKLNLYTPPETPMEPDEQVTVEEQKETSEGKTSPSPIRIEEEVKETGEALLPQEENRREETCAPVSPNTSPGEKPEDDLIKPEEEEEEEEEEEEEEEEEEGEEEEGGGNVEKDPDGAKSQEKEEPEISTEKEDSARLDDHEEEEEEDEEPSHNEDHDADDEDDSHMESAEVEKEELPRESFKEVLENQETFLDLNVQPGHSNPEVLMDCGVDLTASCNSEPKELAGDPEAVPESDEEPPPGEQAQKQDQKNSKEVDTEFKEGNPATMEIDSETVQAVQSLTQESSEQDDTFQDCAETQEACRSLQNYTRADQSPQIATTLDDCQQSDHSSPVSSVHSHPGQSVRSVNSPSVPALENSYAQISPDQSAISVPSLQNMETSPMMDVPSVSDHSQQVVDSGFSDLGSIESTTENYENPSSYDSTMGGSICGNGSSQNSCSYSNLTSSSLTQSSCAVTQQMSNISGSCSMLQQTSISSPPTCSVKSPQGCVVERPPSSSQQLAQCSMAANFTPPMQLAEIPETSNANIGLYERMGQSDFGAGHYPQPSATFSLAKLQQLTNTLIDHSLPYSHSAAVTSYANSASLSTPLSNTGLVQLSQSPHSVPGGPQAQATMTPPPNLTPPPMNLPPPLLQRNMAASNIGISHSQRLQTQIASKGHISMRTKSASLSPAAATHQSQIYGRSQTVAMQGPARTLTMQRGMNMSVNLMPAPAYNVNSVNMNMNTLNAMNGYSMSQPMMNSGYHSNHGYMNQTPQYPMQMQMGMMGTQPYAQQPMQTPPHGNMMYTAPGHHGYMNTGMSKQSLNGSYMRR

[3] = mouse, in vivo, ip
PCAF = PCAF (Homo sapiens, UniProt Q92831); assay: Other acetyltransferase assay; type: biochemical; conditions: up to 100 μM
PCAF, sequence (Q92831 whole entry): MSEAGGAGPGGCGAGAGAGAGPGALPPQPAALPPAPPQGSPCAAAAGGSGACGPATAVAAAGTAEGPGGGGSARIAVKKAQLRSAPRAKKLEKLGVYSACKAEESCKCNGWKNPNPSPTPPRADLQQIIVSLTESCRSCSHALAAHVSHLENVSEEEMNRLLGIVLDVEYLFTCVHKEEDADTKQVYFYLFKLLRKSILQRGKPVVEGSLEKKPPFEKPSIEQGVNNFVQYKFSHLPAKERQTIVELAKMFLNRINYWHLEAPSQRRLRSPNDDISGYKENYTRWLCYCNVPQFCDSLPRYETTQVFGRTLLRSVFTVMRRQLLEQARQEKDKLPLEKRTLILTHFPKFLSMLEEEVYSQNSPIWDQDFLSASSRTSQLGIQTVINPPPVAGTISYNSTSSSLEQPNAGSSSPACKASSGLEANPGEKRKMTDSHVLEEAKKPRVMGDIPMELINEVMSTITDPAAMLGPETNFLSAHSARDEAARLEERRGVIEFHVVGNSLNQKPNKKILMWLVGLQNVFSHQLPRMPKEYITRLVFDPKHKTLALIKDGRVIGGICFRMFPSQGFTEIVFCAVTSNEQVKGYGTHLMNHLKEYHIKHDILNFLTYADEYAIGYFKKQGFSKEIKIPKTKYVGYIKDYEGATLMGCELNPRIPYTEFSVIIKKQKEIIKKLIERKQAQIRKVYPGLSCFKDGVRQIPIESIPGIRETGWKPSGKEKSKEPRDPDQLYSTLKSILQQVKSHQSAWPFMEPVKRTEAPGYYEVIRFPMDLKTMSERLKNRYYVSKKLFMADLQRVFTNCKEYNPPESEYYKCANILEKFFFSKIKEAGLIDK

[4] = tested on: H4 lysine 5 and 12 acetylation; assay: Nascent histone H4 acetylation in hTert-HME1 cells; type: cell-based, human; conditions: hTert-HME1, 12 hours
FAD-dependent oxidase = assay: FAD oxidase reaction; type: biochemical; conditions: 0.01 μM FAD
H4K12Ac in A549 tumors = assay: H4K12Ac immunofluorescence in A549 tumors after single i.p. dose; conditions: tumors harvested 24 hours later
[5] = Plasma pharmacokinetics after single i.p. injection; conditions: female, CD1, mouse, intraperitoneal, 100 mg/kg
KAT5 = KAT5 (Homo sapiens, UniProt Q92993); assay: Other acetyltransferase assay; type: biochemical; conditions: up to 100 μM
KAT5, sequence (Q92993 whole entry): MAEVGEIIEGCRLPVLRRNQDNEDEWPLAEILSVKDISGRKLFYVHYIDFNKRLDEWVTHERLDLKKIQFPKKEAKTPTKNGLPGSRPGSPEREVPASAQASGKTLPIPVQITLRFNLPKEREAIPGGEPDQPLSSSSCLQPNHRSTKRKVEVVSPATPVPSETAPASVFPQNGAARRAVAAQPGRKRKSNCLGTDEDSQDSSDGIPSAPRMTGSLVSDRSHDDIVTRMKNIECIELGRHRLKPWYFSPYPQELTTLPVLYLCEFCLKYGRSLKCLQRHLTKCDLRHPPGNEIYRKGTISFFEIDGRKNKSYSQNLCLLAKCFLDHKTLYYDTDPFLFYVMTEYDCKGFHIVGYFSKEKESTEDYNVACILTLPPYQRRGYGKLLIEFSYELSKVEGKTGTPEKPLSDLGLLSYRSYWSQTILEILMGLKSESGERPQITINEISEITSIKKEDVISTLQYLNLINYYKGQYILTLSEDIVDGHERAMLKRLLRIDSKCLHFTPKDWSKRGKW

HAT1/Rbap46 enzyme complex, sequence (O14929 whole entry): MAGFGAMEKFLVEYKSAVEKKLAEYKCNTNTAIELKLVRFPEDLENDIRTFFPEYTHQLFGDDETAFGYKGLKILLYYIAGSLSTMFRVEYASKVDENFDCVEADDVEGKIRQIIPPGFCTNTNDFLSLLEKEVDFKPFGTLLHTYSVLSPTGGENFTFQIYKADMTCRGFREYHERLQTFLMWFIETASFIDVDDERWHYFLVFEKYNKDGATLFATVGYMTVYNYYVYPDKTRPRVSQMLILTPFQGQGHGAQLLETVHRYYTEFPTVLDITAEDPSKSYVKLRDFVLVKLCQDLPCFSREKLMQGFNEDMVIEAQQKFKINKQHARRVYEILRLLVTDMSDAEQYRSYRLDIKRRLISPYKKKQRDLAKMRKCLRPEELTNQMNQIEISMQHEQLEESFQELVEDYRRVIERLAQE
HAT1/Rbap46 enzyme complex, sequence (Q16576 whole entry partner): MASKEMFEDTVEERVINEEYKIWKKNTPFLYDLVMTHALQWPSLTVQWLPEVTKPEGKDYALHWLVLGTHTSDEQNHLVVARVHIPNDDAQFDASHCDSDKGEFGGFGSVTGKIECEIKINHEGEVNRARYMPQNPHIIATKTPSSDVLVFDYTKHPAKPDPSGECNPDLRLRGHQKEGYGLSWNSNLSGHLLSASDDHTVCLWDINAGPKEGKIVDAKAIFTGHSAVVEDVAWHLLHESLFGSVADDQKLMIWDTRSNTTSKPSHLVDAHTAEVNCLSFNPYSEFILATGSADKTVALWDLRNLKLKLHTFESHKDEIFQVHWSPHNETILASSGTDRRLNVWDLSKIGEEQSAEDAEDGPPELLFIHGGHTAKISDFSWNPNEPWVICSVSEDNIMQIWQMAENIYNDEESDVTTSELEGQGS

With `Cc1cc2nc3c(=O)[nH]c(=O)nc-3n(C[C@H](O)[C@H](O)[C@H](O)COP(=O)(O)OP(=O)(O)OC[C@H]3O[C@@H](n4cnc5c(N)ncnc54)[C@H](O)[C@@H]3O)c2cc1C` [FAD, flavin-adenine-dinucleotide, reference compound] as the compound, how does the “HAT1 inhibitory activity (in words)” value [1] read?
Its value is “no detectable inhibitory activity”.

With `CC(=O)SCCNC(=O)CCNC(=O)[C@H](O)C(C)(C)COP(=O)(O)OP(=O)(O)OC[C@H]1O[C@@H](n2cnc3c(N)ncnc32)[C@H](O)[C@@H]1OP(=O)(O)O` [acetyl-CoA] as the compound, how does the “preference of enzyme for native cofactor versus 4-pentynoyl-CoA” value [1] read?
Its value is > 100 fold.

What about the “suppression of pentynoylated product” value ([1]; 1 μM acetyl-CoA, 100 μM 4-pentynoyl-CoA) of the same compound?
The value was “completely suppressed”.

Which “HAT1 inhibitory activity (in words)” value [1] does the source give for `Cc1cc2nc3c(=O)[nH]c(=O)nc-3n(C[C@H](O)[C@H](O)[C@H](O)COP(=O)(O)O)c2cc1C` [FMN, flavin-mononucleotide, reference compound] here?
The value was “no detectable inhibitory activity”.

Which “HAT1 inhibitory activity (in words)” value [1] does the source give for `Cc1cc2nc3[nH]c(=O)[nH]c(=O)c3nc2cc1C` [di-methyl-alloxazine, reference compound] here?
The value was “no detectable inhibitory activity”.

Which results are given for `Cc1cc2nc3c(=O)[nH]c(=O)nc-3n(C[C@H](O)[C@H](O)[C@H](O)CO)c2cc1N(C)C` [roseoflavin, reference compound]?
HAT1 inhibitory activity (in words) [1]: inactive; cell growth inhibitory activity (in words) (HCC1806 cells): strong cell growth inhibitory properties

For `CCc1cc2c(cc1Cl)nc1c(=O)[nH]c(=O)nc-1n2CCOCc1ccc(C#N)cc1` [Compound 24g, 4-((2-(7-Chloro-8-ethyl-2,4-dioxo-3,4-dihydrobenzo[g]pteridin-10(2H)-yl)ethoxy)methyl)benzonitrile], which “HAT1 inhibitory activity (in words)” value [1] is on record?
The value was “interfered with enzyme inhibition”.

For “3-(3-(7-Chloro-8-ethyl-2,4-dioxo-3,4-dihydrobenzo[g]pteridin-10(2H)-yl)propoxy)benzonitrile [Compound 37i]”, which “HAT1 inhibitory activity (in words)” value [1] is on record?
The value was “interfered with enzyme inhibition”.

For `CCc1cc2c(cc1Cl)nc1c(=O)[nH]c(=O)nc-1n2CCOCc1cccc(F)c1` [Compound 20b, 7-Chloro-8-ethyl-10-(2-((3-fluorobenzyl)oxy)ethyl)benzo[g]pteridine-2,4(3H,10H)-dione], which “HAT1 inhibitory activity (in words)” value [1] is on record?
Its value is “interfered with enzyme inhibition”.

With `CCc1cc2c(cc1Cl)nc1c(=O)[nH]c(=O)nc-1n2CCOCC(C)C` [JG-2016, 7-Chloro-8-ethyl-10-(2-isobutoxyethyl)benzo[g]pteridine-2,4(3H,10H)-dione] as the compound, how does the “dose at which signs of distress were observed” value [2] read?
Its value is 500 mg/kg.

What about the “tumor growth versus vehicle” value (A549 tumors) of the same compound?
Its value is “significantly impaired tumor growth”.

And the “inhibitory activity towards GCN5” value (GCN5)?
The value was “minimal or undetectable inhibitory activity”.

What about the “inhibitory activity towards MYST4/KAT6b” value (MYST4/KAT6b) of the same compound?
The value was “minimal or undetectable inhibitory activity”.

What about the “tolerated dose with minimal toxicity” value [3] of the same compound?
The value was “up to 250 mg/kg”.

What about the “inhibitory activity towards PCAF” value (PCAF) of the same compound?
The value was “minimal or undetectable inhibitory activity”.

And the “H4 lysine 5 and 12 acetylation in cells” value [4]?
Its value is “dose-dependent inhibition”.

What about the “inhibition of FAD-dependent oxidase” value (FAD-dependent oxidase) of the same compound?
Its value is “no significant inhibitory activity”.

And the “H4K12Ac signal in tumors” value (H4K12Ac in A549 tumors)?
The value was “dose-dependent decrease”.

What about the concentration at 72 h [5] of the same compound?
Its concentration at 72 h is 2050 ± 233 nM.

What about the “inhibitory activity towards KAT5” value (KAT5) of the same compound?
The value was “minimal or undetectable inhibitory activity”.
